According to US20230391768A2, “IMIDAZOPYRIDINE DERIVATIVES AND AZA-IMIDAZOPYRIDINE DERIVATIVES AS JANUS KINASE 2 INHIBITORS AND USES THEREOF” (Dana-Farber Cancer Institute, Inc., priority 2018, published 2023):

Key:
Test in all cases: KINOMEscan
Format in all cases: binding
Settings in all cases: read-out: percent of control
TNK2 = TNK2 (Homo sapiens (Human), UniProt Q07912)
Experimental: (§1) In vitro profiling of Compound I-2 (1 μM) was performed using the DiscoveRx KINOMEscan® platform.

FGFR4 = FGFR4 (Homo sapiens (Human), UniProt P22455)
Experimental: as §1

ERK8 = ERK8 (Homo sapiens (Human), UniProt Q8TD08)
Experimental: as §1

ABL1-nonphosphorylated = ABL1-nonphosphorylated (Homo sapiens (Human), UniProt P00519)
Experimental: as §1

CDKL1 = CDKL1 (Homo sapiens (Human), UniProt Q00532)
Experimental: as §1

ERBB3 = ERBB3 (Homo sapiens (Human), UniProt P21860)
Experimental: as §1

PRKR = PRKR (Homo sapiens (Human), UniProt P19525)
Experimental: as §1

MST1 = MST1 (Homo sapiens (Human), UniProt Q13043)
Experimental: as §1

[1] = target: RSK3 (Kin.Dom.1-N-terminal) (Homo sapiens (Human), UniProt Q15349)
Experimental: as §1

HIPK4 = HIPK4 (Homo sapiens (Human), UniProt Q8NE63)
Experimental: as §1

ERN1 = ERN1 (Homo sapiens (Human), UniProt O75460)
Experimental: as §1

DMPK2 = DMPK2 (Homo sapiens (Human), UniProt Q6DT37)
Experimental: as §1

HUNK = HUNK (Homo sapiens (Human), UniProt P57058)
Experimental: as §1

MST1R = MST1R (Homo sapiens (Human), UniProt Q04912)
Experimental: as §1

MELK = MELK (Homo sapiens (Human), UniProt Q14680)
Experimental: as §1

RET (V804L) = RET (V804L) (Homo sapiens (Human), UniProt P07949, V804L)
Experimental: as §1

LIMK1 = LIMK1 (Homo sapiens (Human), UniProt P53667)
Experimental: as §1

LCK = LCK (Homo sapiens (Human), UniProt P06239)
Experimental: as §1

FLT3 (D835H) = FLT3 (D835H) (Homo sapiens (Human), UniProt P36888, D835H)
Experimental: as §1

KIT(L576P) = KIT(L576P) (Homo sapiens (Human), UniProt P10721, L576P)
Experimental: as §1

PIK3CG = PIK3CG (Homo sapiens (Human), UniProt P48736)
Experimental: as §1

BRAF(V600E) = BRAF(V600E) (Homo sapiens (Human), UniProt P15056, V600E)
Experimental: as §1

MAP4K2 = MAP4K2 (Homo sapiens (Human), UniProt Q12851)
Experimental: as §1

MLK2 = MLK2 (Homo sapiens (Human), UniProt Q02779)
Experimental: as §1

PRP4 = PRP4 (Homo sapiens (Human), UniProt Q13523)
Experimental: as §1

ROS1 = ROS1 (Homo sapiens (Human), UniProt P08922)
Experimental: as §1

EGFR(L858R, T790M) = EGFR(L858R, T790M) (Homo sapiens (Human), UniProt P00533, L858R/T790M)
Experimental: as §1

ULK3 = ULK3 (Homo sapiens (Human), UniProt Q6PHR2)
Experimental: as §1

PAK3 = PAK3 (Homo sapiens (Human), UniProt O75914)
Experimental: as §1

NEK5 = NEK5 (Homo sapiens (Human), UniProt Q6P3R8)
Experimental: as §1

GRK4 = GRK4 (Homo sapiens (Human), UniProt P32298)
Experimental: as §1

PRKCD = PRKCD (Homo sapiens (Human), UniProt Q05655)
Experimental: as §1

NEK7 = NEK7 (Homo sapiens (Human), UniProt Q8TDX7)
Experimental: as §1

CAMK2D = CAMK2D (Homo sapiens (Human), UniProt Q13557)
Experimental: as §1

CDK5 = CDK5 (Homo sapiens (Human), UniProt Q00535)
Experimental: as §1

CAMK2G = CAMK2G (Homo sapiens (Human), UniProt Q13555)
Experimental: as §1

SNARK = SNARK (Homo sapiens (Human), UniProt Q9H093)
Experimental: as §1

[2] = target: RSK1 (Kin.Dom.2-C-terminal) (Homo sapiens (Human), UniProt Q15418)
Experimental: as §1

MLK2, sequence (Q02779 whole entry): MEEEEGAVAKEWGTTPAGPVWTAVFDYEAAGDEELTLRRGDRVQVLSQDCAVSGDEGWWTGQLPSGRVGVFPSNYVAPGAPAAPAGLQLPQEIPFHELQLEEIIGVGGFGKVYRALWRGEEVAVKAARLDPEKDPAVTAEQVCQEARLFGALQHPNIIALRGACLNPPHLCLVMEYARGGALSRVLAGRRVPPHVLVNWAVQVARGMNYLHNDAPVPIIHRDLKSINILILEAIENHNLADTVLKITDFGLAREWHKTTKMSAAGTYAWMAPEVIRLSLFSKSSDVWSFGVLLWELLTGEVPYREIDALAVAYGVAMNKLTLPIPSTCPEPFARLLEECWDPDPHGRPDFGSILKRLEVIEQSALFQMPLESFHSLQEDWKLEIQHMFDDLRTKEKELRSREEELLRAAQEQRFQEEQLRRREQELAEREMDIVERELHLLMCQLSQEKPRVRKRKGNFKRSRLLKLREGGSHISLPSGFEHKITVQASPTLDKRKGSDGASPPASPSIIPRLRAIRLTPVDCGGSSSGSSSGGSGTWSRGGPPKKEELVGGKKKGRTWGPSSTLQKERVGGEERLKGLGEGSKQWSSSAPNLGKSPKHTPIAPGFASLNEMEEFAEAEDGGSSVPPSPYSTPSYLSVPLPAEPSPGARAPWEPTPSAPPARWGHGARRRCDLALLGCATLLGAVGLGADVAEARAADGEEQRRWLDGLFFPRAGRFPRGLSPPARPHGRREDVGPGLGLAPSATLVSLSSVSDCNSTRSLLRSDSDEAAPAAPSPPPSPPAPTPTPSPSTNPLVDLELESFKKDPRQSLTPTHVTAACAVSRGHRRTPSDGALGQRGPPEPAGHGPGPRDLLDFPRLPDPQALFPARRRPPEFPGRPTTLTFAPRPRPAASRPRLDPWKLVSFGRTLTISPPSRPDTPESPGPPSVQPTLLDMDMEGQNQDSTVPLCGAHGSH
ABL1-nonphosphorylated, sequence (P00519 whole entry): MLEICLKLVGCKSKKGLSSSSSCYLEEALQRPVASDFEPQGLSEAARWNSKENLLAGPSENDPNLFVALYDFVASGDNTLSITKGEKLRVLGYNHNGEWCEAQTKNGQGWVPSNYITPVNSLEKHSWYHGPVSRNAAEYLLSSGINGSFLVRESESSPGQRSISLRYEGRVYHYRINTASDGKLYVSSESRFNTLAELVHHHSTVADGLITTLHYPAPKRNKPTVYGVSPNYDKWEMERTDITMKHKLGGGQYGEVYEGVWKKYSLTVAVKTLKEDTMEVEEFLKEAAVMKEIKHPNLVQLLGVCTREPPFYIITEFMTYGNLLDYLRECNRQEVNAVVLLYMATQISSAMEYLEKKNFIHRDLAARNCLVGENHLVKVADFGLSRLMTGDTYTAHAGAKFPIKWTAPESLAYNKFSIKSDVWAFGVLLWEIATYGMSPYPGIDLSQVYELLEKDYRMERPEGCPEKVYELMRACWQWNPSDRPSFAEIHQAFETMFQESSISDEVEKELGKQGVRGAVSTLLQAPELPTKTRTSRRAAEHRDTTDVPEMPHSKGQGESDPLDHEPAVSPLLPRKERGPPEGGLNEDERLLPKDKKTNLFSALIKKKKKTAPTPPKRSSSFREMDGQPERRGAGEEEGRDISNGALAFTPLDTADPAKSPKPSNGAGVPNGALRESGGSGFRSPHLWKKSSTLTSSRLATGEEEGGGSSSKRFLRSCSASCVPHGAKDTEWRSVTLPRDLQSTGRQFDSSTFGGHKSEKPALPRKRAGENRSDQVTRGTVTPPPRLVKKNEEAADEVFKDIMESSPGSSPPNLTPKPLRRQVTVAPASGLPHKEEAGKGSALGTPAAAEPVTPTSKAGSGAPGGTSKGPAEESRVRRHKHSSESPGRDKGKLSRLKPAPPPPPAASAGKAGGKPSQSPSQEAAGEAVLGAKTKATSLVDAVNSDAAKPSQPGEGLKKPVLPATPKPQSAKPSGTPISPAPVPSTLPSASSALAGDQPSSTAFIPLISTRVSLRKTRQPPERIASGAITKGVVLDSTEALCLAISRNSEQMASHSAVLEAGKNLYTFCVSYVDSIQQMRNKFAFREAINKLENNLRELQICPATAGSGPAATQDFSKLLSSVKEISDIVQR
MST1, sequence (Q13043 whole entry): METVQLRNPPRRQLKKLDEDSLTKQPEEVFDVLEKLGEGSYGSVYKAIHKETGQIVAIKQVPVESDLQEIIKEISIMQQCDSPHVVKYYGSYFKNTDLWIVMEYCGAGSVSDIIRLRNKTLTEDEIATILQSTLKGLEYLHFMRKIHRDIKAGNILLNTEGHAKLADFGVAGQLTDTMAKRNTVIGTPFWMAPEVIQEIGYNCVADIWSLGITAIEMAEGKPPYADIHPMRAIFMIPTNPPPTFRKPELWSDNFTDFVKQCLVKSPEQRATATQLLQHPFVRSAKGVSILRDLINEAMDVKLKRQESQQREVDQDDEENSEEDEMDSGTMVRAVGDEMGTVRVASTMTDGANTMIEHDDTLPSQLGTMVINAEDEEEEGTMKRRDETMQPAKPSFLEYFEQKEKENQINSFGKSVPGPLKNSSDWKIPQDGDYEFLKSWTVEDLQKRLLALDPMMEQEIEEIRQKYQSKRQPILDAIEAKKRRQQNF
CAMK2G, sequence (Q13555 whole entry): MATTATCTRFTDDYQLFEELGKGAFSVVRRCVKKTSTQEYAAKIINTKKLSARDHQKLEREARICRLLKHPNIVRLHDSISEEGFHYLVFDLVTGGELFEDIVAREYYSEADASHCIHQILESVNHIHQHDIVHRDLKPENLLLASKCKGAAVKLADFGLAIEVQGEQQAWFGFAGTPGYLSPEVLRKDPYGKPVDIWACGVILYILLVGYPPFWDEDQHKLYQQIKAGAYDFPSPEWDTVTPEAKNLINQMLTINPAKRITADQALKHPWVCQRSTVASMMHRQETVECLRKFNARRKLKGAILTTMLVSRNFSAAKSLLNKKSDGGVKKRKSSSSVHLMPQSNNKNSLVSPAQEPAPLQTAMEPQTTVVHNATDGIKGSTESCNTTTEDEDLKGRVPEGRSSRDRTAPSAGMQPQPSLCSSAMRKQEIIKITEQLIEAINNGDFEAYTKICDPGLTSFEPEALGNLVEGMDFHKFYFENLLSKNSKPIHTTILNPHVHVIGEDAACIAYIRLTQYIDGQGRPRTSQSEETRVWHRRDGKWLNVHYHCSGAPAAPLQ
CAMK2D, sequence (Q13557 whole entry): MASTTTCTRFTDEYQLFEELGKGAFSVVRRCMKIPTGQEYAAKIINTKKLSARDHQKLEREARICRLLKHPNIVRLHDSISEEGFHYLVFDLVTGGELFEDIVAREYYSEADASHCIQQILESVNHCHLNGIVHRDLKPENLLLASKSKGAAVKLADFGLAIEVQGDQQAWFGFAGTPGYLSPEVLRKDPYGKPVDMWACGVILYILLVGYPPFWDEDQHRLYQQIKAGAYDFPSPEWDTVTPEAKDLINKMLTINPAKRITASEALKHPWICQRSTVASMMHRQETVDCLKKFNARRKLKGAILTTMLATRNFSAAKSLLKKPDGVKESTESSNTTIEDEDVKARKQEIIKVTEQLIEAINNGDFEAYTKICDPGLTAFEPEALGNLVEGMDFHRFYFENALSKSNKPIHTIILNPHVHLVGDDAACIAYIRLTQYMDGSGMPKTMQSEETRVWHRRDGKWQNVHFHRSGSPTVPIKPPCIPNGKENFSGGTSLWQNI
PIK3CG, sequence (P48736 whole entry): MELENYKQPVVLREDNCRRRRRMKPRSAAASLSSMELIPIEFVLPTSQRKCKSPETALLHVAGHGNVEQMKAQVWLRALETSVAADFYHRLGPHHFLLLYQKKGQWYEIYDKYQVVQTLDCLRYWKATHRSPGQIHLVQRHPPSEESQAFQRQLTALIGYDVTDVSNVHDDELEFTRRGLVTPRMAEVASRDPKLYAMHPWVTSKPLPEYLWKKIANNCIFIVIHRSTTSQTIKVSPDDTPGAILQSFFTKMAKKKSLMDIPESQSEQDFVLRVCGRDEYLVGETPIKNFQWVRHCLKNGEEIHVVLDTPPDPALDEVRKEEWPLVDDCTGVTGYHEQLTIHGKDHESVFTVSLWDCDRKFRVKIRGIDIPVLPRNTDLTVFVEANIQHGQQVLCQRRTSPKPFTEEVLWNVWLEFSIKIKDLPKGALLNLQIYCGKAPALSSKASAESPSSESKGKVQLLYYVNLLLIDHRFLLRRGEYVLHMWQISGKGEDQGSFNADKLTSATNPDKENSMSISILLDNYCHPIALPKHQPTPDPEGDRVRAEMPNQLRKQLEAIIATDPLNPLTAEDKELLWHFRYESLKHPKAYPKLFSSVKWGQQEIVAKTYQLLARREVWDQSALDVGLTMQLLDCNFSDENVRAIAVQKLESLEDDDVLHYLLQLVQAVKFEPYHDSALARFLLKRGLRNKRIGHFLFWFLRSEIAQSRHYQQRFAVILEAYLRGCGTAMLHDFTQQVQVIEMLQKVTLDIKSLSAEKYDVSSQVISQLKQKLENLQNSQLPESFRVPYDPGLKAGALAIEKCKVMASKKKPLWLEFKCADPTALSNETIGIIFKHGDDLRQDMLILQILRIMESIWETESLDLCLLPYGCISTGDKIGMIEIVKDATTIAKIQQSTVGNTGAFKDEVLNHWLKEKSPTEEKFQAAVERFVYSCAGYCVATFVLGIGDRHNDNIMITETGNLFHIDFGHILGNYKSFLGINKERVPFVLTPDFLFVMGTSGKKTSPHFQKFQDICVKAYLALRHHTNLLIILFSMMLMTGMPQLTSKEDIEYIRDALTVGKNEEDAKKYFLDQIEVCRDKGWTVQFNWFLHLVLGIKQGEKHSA
NEK7, sequence (Q8TDX7 whole entry): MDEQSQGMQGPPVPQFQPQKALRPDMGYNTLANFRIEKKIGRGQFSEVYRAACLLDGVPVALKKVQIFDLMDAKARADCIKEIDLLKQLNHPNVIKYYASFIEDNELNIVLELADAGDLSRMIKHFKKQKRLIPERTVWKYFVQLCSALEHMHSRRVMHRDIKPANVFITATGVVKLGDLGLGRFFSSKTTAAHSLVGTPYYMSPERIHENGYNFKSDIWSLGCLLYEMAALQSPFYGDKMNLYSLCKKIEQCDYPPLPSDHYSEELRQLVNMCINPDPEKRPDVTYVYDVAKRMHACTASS

`CCN1CCN(Cc2cc(NC(=O)c3ccc(C)c(-c4ccc5nc(NC(=O)C6CC6)cn5n4)c3)cc(C(F)(F)F)c2)CC1` [Compound I-2, 3-(2-(cyclopropanecarboxamido)imidazo[1,2-b]pyridazin-6-yl)-N-(3-((4-ethylpiperazin-1-yl)methyl)-5-(trifluoromethyl)phenyl)-4-methylbenzamide] gave a remaining binding at 1 µM (TNK2) of 100%, a remaining binding at 1 µM (FGFR4) of 100% and a remaining binding at 1 µM (ERK8) of 2.2%. It also gave a remaining binding at 1 µM (ABL1-nonphosphorylated) of 0%, a remaining binding at 1 µM (CDKL1) of 40% and a remaining binding at 1 µM (ERBB3) of 100%. It also gave a remaining binding at 1 µM (PRKR) of 97%, a remaining binding at 1 µM (MST1) of 30% and a remaining binding at 1 µM [1] of 100%. It also gave a remaining binding at 1 µM (HIPK4) of 32%, a remaining binding at 1 µM (ERN1) of 84% and a remaining binding at 1 µM (DMPK2) of 87%. The remaining binding at 1 µM (HUNK) was 80%, the remaining binding at 1 µM (MST1R) was 83% and the remaining binding at 1 µM (MELK) was 95%. It also gave a remaining binding at 1 µM (RET (V804L)) of 0.15%, a remaining binding at 1 µM (LIMK1) of 87% and a remaining binding at 1 µM (LCK) of 0%. The remaining binding at 1 µM (FLT3 (D835H)) was 2.2%, the remaining binding at 1 µM (KIT(L576P)) was 0% and the remaining binding at 1 µM (PIK3CG) was 99%. The remaining binding at 1 µM (BRAF(V600E)) was 1.7%, the remaining binding at 1 µM (MAP4K2) was 0.05% and the remaining binding at 1 µM (MLK2) was 72%. For the same compound, the remaining binding at 1 µM (PRP4) was 87%, the remaining binding at 1 µM (ROS1) was 52% and the remaining binding at 1 µM (EGFR(L858R, T790M)) was 100%. The remaining binding at 1 µM (ULK3) was 97%, the remaining binding at 1 µM (PAK3) was 82% and the remaining binding at 1 µM (NEK5) was 89%. It also gave a remaining binding at 1 µM (GRK4) of 81%, a remaining binding at 1 µM (PRKCD) of 40% and a remaining binding at 1 µM (NEK7) of 99%. The remaining binding at 1 µM (CAMK2D) was 100%, the remaining binding at 1 µM (CDK5) was 6.6% and the remaining binding at 1 µM (CAMK2G) was 94%. The remaining binding at 1 µM (SNARK) was 100% and the remaining binding at 1 µM [2] was 100%.
Work on `CCN1CCN(Cc2cc(NC(=O)c3ccc(C)c(-c4ccc5nc(NC(=O)C6CC6)cn5c4)c3)cc(C(F)(F)F)c2)CC1` [Compound I-6, 3-(2-(cyclopropanecarboxamido)imidazo[1,2-a]pyridin-6-yl)-N-(3-((4-ethylpiperazin-1-yl)methyl)-5-(trifluoromethyl)phenyl)-4-methylbenzamide] yielded a remaining binding at 1 µM (TNK2) of 99%, a remaining binding at 1 µM (FGFR4) of 100% and a remaining binding at 1 µM (ERK8) of 3.1%. The remaining binding at 1 µM (ABL1-nonphosphorylated) was 0.1%, the remaining binding at 1 µM (CDKL1) was 77% and the remaining binding at 1 µM (ERBB3) was 93%. The remaining binding at 1 µM (PRKR) was 95%, the remaining binding at 1 µM (MST1) was 60% and the remaining binding at 1 µM [1] was 95%. The remaining binding at 1 µM (HIPK4) was 55%, the remaining binding at 1 µM (ERN1) was 78% and the remaining binding at 1 µM (DMPK2) was 100%. The remaining binding at 1 µM (HUNK) was 96%, the remaining binding at 1 µM (MST1R) was 100% and the remaining binding at 1 µM (MELK) was 100%. The remaining binding at 1 µM (RET (V804L)) was 0%, the remaining binding at 1 µM (LIMK1) was 96% and the remaining binding at 1 µM (LCK) was 0.1%. For the same compound, the remaining binding at 1 µM (FLT3 (D835H)) was 2%, the remaining binding at 1 µM (KIT(L576P)) was 1.8% and the remaining binding at 1 µM (PIK3CG) was 92%. The remaining binding at 1 µM (BRAF(V600E)) was 5.9%, the remaining binding at 1 µM (MAP4K2) was 0.2% and the remaining binding at 1 µM (MLK2) was 62%. For the same compound, the remaining binding at 1 µM (PRP4) was 100%, the remaining binding at 1 µM (ROS1) was 59% and the remaining binding at 1 µM (EGFR(L858R, T790M)) was 59%. It also gave a remaining binding at 1 µM (ULK3) of 100%, a remaining binding at 1 µM (PAK3) of 66% and a remaining binding at 1 µM (NEK5) of 100%. The remaining binding at 1 µM (GRK4) was 98%, the remaining binding at 1 µM (PRKCD) was 48% and the remaining binding at 1 µM (NEK7) was 91%. For the same compound, the remaining binding at 1 µM (CAMK2D) was 92%, the remaining binding at 1 µM (CDK5) was 52% and the remaining binding at 1 µM (CAMK2G) was 95%. It also gave a remaining binding at 1 µM (SNARK) of 100% and a remaining binding at 1 µM [2] of 96%.
